# Experimental data published in article PMC9249791, “Molecular dissection of the glutamine synthetase-GlnR nitrogen regulatory circuitry in Gram-positive bacteria” (Nature Communications, 2022).
# Legend:
# Format in all cases: binding
# [1] = target: T1, Sa GS (Staphylococcus aureus, UniProt P0A040); assay: isothermal titration calorimetry
# T1 construct: gene glnA; full-length, synthetic gene in pET15b, N-terminal His-tag, E. coli C41(DE3); tag removed only for crystallography; dodecamer (double hexamer ring)
# T1 sequence (P0A040 1-446): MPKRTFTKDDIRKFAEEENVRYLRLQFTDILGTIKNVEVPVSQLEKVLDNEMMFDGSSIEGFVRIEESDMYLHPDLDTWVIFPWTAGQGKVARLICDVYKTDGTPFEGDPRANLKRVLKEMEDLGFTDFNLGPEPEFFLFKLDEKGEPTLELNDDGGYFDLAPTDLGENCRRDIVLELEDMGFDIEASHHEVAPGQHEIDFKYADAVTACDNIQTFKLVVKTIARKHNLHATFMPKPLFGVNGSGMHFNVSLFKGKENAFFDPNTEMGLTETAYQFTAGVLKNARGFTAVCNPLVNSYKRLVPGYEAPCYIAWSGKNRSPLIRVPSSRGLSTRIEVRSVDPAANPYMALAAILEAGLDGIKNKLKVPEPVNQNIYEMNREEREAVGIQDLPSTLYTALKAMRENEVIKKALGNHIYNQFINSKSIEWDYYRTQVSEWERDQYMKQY
# [2] = target: T2, Pp GS (Paenibacillus polymyxa, UniProt A0A0F0G8G2); assay: cryo-EM structure […]-2.[…] Å; conditions: 20 mM glutamine, 5 mM MgCl2, pH 7.5, with GlnR C-tail peptide; overlaps glutamate site
# T2 construct: gene glnA2; full-length, synthetic gene in pET15b, N-terminal His-tag (removed by thrombin for crystallography), E. coli C41(DE3)
# T2 sequence (A0A0F0G8G2 1-442): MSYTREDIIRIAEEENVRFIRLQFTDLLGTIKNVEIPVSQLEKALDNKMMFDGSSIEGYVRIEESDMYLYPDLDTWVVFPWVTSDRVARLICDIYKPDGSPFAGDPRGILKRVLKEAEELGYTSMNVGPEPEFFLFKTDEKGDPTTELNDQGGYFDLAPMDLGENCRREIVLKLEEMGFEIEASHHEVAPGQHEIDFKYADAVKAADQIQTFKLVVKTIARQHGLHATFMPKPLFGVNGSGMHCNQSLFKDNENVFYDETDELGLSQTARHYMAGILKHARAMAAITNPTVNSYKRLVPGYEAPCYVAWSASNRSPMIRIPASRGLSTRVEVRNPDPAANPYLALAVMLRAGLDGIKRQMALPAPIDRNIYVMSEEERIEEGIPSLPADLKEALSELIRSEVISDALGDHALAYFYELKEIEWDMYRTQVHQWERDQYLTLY
# [3] = target: T3, Lm GS (Listeria monocytogenes, UniProt A0A5D5GA79); assay: cryo-EM structure […] Å; conditions: 20 mM glutamine, 5 mM MgCl2, pH 7.5, with GlnR C-tail peptide; overlaps glutamate site
# T3 construct: gene glnA; full-length, synthetic gene in pET15b, N-terminal His-tag, E. coli C41(DE3); apo dodecamer
# T3 sequence (A0A5D5GA79 1-444): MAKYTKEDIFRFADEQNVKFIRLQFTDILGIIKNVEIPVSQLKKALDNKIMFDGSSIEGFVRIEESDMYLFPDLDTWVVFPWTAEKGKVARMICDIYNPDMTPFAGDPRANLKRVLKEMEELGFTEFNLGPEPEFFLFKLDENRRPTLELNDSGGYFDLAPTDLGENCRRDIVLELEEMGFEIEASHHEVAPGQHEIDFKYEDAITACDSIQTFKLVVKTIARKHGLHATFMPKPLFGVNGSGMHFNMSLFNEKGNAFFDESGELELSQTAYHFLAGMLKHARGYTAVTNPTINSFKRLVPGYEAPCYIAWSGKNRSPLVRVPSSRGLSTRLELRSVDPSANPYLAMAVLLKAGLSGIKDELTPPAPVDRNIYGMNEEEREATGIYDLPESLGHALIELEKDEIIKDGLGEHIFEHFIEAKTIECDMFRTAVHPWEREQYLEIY
# [4] = target: T4, Bs GS (Bacillus subtilis, UniProt P12425); assay: cryo-EM structure […] Å; conditions: 20 mM glutamine, 5 mM MgCl2, pH 7.5, with GlnR C-tail peptide; overlaps glutamate site
# T4 construct: gene glnA; full-length, synthetic gene in pET15b, N-terminal His-tag, E. coli C41(DE3); apo dodecamer
# T4 sequence (P12425 1-444): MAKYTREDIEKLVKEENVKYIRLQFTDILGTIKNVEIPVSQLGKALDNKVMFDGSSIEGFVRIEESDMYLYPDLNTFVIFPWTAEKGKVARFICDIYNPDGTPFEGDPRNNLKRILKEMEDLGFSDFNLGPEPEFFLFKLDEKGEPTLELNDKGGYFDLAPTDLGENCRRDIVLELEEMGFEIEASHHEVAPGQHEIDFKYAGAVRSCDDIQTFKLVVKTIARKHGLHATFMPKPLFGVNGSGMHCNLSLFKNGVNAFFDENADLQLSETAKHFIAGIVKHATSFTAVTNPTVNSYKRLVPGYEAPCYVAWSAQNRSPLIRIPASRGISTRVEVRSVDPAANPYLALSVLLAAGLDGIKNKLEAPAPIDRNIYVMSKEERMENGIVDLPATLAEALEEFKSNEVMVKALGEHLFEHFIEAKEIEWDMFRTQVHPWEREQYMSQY
smiles,measurement,setting,value
NC(=O)CC[C@H](N)C(=O)O [glutamine],Kd,[1],500 µM
same,cryo-EM structure 2.07-2.28 Å,[2],Glutamine binds identically in each structure to form FBI-GS
same,cryo-EM structure 2.61 Å,[3],Glutamine binds identically in each structure to form FBI-GS
same,cryo-EM structure 1.96 Å,[4],Glutamine binds identically in each structure to form FBI-GS
